Test results: EP2875816A1, “N-(3-hydroxy-5,7-dimethyladamantan-1-yl)-2-(3-oxobenzo[d]isothiazol-2(3h)-yl)acetamide as a novel inhibitor for staphylococcus aureus sortase a” (Latvian Biomedical Research and Study Centre, priority 2013, dated 2015)
Converted amounts (≈) assume the structure as drawn.

Legend:
[1] = system: S. epidermidis; test: Minimum inhibitory concentration (MIC), broth dilution micromethod; format: cell-based; conditions: Staphylococcus epidermidis; 24 hours at 37 °C, complete inhibition of cell growth, OD 600 nm
Description: (§1) The MIC values of test compounds that inhibited cell growth of Gram-positive Staphylococcus aureus and S. epidermidis were determined by broth dilution micromethod. A series of solutions with a range from 0.1 µg/ml to 400 µg/ml were made in using a logarithmical phase culture with OD600 = 0.1 (corresponds to ~1.2 x 10^8 CFU/ml in 96-well plate standard. The plate was incubated at 37 °C for 24 hours and growth was assayed with a microplate reader by monitoring the absorption at 600 nm. All experiments were done in triplicate, and repeated three times.

[2] = system: Staphylococcus aureus; test: as above; format: cell-based; conditions: 24 hours at 37 °C, complete inhibition of cell growth, OD 600 nm, read-out: MIC, S.aureus
Description: as §1

[3] = system: NIH/3T3 mouse fibroblast cell line; test: Cytotoxicity / cell growth inhibition, MTT test; format: cell-based; conditions: NIH3T3, 48 hours exposure, mean of three independent experiments ±SD
Description: The growth inhibitory effect of the newly synthesized compound was studied on NIH/3T3mouse fibroblast cell line. NIH/3T3 cells were seeded into 96-well microplates with initial density of 1x10^4 cells per well in DMEM culture medium with 10% FCS. After 24 hours of incubation, cells were exposed to a graded series of concentrations of chemical compounds for additional 48 hours. The cell medium was removed and 100 µl of fresh culture medium without phenol red and 1 mM MTT solution was added to each well. After 3 hours of incubation, an equal volume of 1% SDS-HCl solution was added and plates were incubated for additional 4 hours. Absorbance was measured at 570 nm and the data were fitted to a four parameter variable slope equation to determine the IC50 value.
The cytotoxic response is dependent on the cell line tested and NIH/3T3 mouse fibroblasts are a well-characterized cellular model used to study toxicity and drug delivery processes. In the table 3 data are given as the mean of three independent experiments ±SD.

[4] = biological target: T1, SrtA (Staphylococcus aureus, UniProt Q2FV99); test: Binding to SrtA monitored by 2D [15N,1H]-HSQC NMR spectroscopy, with dialysis; conditions: 2D 15N-1H HSQC spectrum unchanged after dialysis against NMR buffer
T1 construct: expressed with an N-terminal deletion of 59 amino acid residues (SrtAΔN59, residues 60-206); made in house
Excerpt: • Fig. 1 - represents the binding of a selected inhibitor N-(adamantan-1-yl)-2-(3-oxo-2,3-dihydro-1,2-benzothiazol-2-yl)acetamide to SrtA monitored by 2D [^15N,^1H]-HSQC NMR spectroscopy. (a) Spectrum of SrtA in absence of inhibitor. […] (a) SrtA active site after modification by inhibitor. The inhibitor (in cyan) and near-by side chains of SrtA are shown with sticks and labeled. Side chains are colored according to their type: hydrophobic in yellow, negatively charged in red, positively charged in blue and hydrophilic in grey. Hydrogens are omitted for clarity. […] (c) Molecular surface representation of SrtA in complex with inhibitor. It can be seen in the figure that the inhibitor occupies almost all volume of the substrate pocket, the majority of interactions are hydrophobic and hydrogen bond is at the R139.
Determination of the complex structure of selected inhibitor and sortase enzyme was performed by using the nuclear magnetic resonance (NMR) spectroscopy methods. The collected NMR data allowed to specify the structure of inhibitory complexes.
To verify that the selected inhibitor can react with a cysteine thiol (such as the SrtA active site C 184) we performed a reaction with cysteine in the NMR tube and observed the formation of a covalent adduct (Figure 2). The chemical structure of the product was verified using proton 1D and 2D NMR methods.

[5] = biological target: T2, S. aureus sortase A (SrtAΔN59, residues 60-206) (Staphylococcus aureus, UniProt Q2FV99); test: SrtA enzyme FRET inhibition assay (dose-response, recombinant sortase A with FRET peptide substrate containing the LPETG motif); format: biochemical
T2 construct: expressed with an N-terminal deletion of 59 amino acid residues (SrtAΔN59, residues 60-206); made in house
Excerpt: The catalytically active recombinant sortase A enzyme used for these studies was expressed with an N-terminal deletion of 59 amino acid residues (SrtAΔN59, residues 60-206). The first step included high-throughput screening of potent S. aereus SrtA inhibitors and selection of new antibacterial substances as sortase A inhibitors. In order to identify potent inhibitors of S. aureus sortase A, a high-throughput screening (HTS) of a diverse library of 50,000 drug-like low-molecular weight molecules was performed, which led to the identification of novel promising drug candidates.
These assays included determination of 50% SrtA inhibition concentration (IC50) of the newly synthesized derivative in dose-response experiments using the recombinant sortase
A enzyme incubated with FRET peptide substrate containing the LPETG motif, minimal inhibitory concentration (MIC) test with two staphylococcal species to measure the antimicrobial efficacy of the new inhibitory molecule, and toxicity test using a normal mouse embryonic fibroblasts cell line NIH/3T3 to determine the cell growth IC50 inhibitory concentration.
Values are means ±SD (n = 5).

Structure (SMILES) | MIC [1] [µg/mL] | MIC [2] [µg/mL] | IC50 [3] [µg/mL] | Mode of binding to the active site of SrtA [4] | IC50 [5] [µM]
O=C(Cn1sc2ccccc2c1=O)NC12CC3CC(CC(C3)C1)C2 [N-(adamantan-1-yl)-2-(3-oxo-2,3-dihydro-1,2-benzothiazol-2-yl)acetamide] | 0.5 (≈ 1.46 µM) | 1 (≈ 2.92 µM) | 1.3 (≈ 3.8 µM) | irreversible binding | 
CC12CC3(C)CC(O)(C1)CC(NC(=O)Cn1sc4ccccc4c1=O)(C2)C3 [N-(3-hydroxy-5,7-dimethyladamantan-1-yl)-2-(3-oxobenzo[d]isothiazol-2(3H)-yl)acetamide] | 8 (≈ 20.7 µM) | 8 (≈ 20.7 µM) | 8.1 (≈ 21 µM) |  | 3.9
